Reference: US8278453B2, “Quinolizidinone M1 receptor positive allosteric modulators” (Merck Sharp & Dohme Corp., priority 2008, dated 2012)

What follows are compounds tested against T1, acetylcholine muscarinic M1 receptor (Homo sapiens, UniProt P11229) (assay: muscarinic M1 FLIPR intracellular calcium assay (positive allosteric modulation, EC20 acetylcholine)). Conditions: inflection point from FLIPR values; CHOnfat/hM1 cells; 4 min preincubation, then EC20 acetylcholine (3 nM final); read-out: IP Value.
T1 construct: expressed in transfected cells; host or cells: CHOnfat (CHO cells expressing NFAT), line CHOnfat/hM1
T1 sequence (P11229 1-460): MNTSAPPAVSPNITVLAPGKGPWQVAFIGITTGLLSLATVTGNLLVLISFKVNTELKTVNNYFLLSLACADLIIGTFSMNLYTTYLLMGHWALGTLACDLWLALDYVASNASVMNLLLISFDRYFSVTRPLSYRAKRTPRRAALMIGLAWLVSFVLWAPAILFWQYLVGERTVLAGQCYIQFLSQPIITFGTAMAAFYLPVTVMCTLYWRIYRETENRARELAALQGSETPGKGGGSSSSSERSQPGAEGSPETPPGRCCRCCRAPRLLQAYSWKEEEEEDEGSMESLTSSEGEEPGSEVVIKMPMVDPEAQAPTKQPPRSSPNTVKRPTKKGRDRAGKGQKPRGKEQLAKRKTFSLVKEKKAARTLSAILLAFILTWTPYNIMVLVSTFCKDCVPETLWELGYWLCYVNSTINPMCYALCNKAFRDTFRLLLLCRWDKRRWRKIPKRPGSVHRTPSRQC
Assay type: cell-based
Method: The assay studies the effect of one or several concentrations of test compounds on basal or acetylcholine-stimulated Ca^2+ levels using FLIPR.
Compounds are prepared and subjected to a preincubation period of 4 min. Thereafter, a single EC20 concentration of acetylcholine is added to each well (3 nM final). The intracellular Ca^2+ level of each sample is measured and compared to an acetylcholine control to determine any modulatory activity.
Cells: CHOnfat/hM1, hM2, hM3 or hM4 cells are plated 24 hr before the assay at a density of 18,000 cells/well (100 μL) in a 384 well plate. CHOnfat/hM1 and CHOnfat/hM3 Growth Medium: 90% DMEM (Hi Glucose); 10% HI FBS; 2 mM L-glutamine; 0.1 mM NEAA; Pen-Strep; and 1 mg/ml Geneticin, are added. For M2Gqi5CHOnfat and M4Gqi5CHOnfat cells, an additional 600 μg/ml hygromycin is added.
Equipment: 384 well plate, 120 μL addition plate; 96-well Whatman 2 ml Uniplate Incubator, 37° C., 5% CO2; Skatron EMBLA-384 Plate Washer; Multimek Pipetting System; Genesis Freedom 200 System; Mosquito System; Temo Nanolitre Pipetting System; and FLIPR^384 Fluorometric Imaging Plate Reader System are used.
Buffers. Assay Buffer: Hanks Balanced Salt Solution, with 20 mM Hepes, 2.5 mM Probenecid (Sigma P-8761) first dissolved in 1N aqueous NaOH, 1% Bovine Serum Albumin (Sigma A-9647). Dye Loading Buffer: Assay Buffer plus 1% Fetal Bovine Serum and Fluo-4AM/Pluronic Acid Mixture. 2 mM Fluo-4AM ester stock in DMSO (Molecular Probes F-14202) Concentration of 2 μM in buffer for a final concentration of 1 μM in Assay. 20% Pluronic Acid Solution stock, with a concentration of 0.04% in Buffer, 0.02% in Assay.
65 μl of 2 mM Fluo-4AM are mixed with 130 μL of 20% Pluronic Acid. The resulting solution and 650 μL FBS is added to the assay buffer for a total volume of 65 mL. Positive Controls: 4-Br-A23187: 10 mM in DMSO; final concentration 10 μM. […]
After 60 min, the cells are washed three times with 100 μL of buffer, leaving 30 μL of buffer in each well. […] A signal test to check background fluorescence and basal fluorescence signal is performed. […]

SMILES | EC50 [µM]
Cn1cc(-c2ccc(Cc3cc(C(=O)O)c(=O)n4ccccc34)nc2)cn1 [Example 5, 1-{[5-(1-Methyl-1H-pyrazol-4-yl)pyridin-2-yl]methyl}-4-oxo-4H-quinolizine-3-carboxylic acid] | 0.213
O=C(O)c1cc(Cc2ccc(-c3ccccc3)cc2)c2ccccn2c1=O [Example 4, 1-(Biphenyl-4-ylmethyl)-4-oxo-4H-quinolizine-3-carboxylic acid] | 0.11
O=C(O)c1cc(Cc2ccc(Cl)cc2)c2ccccn2c1=O [Example 3, 1-(4-Chlorobenzyl)-4-oxo-4H-quinolizine-3-carboxylic acid] | 0.201
